Measured values taken from article PMC10384675, “Novel Thiazolidine-2,4-dione-trimethoxybenzene-thiazole Hybrids as Human Topoisomerases Inhibitors” (Pharmaceuticals, 2023).

Assays:
caspase-8 = assay: Caspase-Glo assay, caspase-8; assay type: cell-based, human; conditions: MCF-7 cells, at IC50 value, 24 h, vs vehicle
Protocol: Once established that mitochondria were damaged and cyt c released into the cytoplasm, we evaluated the ability of compound 7e treatment (used at its IC50 value) in modulating caspase activity.
The caspase-Glo Assay (Caspase-Glo® 3/7, 8 and 9 Assay Systems, Promega Corporation, Madison, WI) was used to detect caspase-3/7, -8 and -9 activities, as reported in [82]. Briefly, cells were grown in white-walled 96-well plates, treated with the compound, and 100 µL of each […] was added.
Figure 7 Caspase activity in MCF-7 cells. […] Columns mean, bars SD; * p < 0.001; n.s., not significant (treated vs. CTRL).

[1] = tested on: MCF-7 breast cancer cells; assay: MTT cell viability assay, MCF-7; assay type: cell-based, human
Protocol: (§1) All of the synthesized compounds (7a–f) were studied to test their anticancer activity toward the estrogen receptor-positive (ER+) MCF-7 and the triple-negative MDA-MB-231 breast cancer cells (ER-, PR- and HER-2/Neu not overexpressed) and A2058 melanoma cells. Cells were incubated for 72 h with different concentrations of the compounds, and then the viability was checked by the MTT assay. […] Moreover, we checked the cytotoxicity of all of the synthesized compounds against the human MCF-10A non-malignant breast epithelial cells and mouse BALB/3T3 embryonic fibroblasts, in order to evaluate their selectivity on cancer cells.
(§2) The used cell lines (breast cancer cell lines MCF-7 and MDA-MB-231, melanoma cell line A2058 and human mammary epithelial cell line MCF-10A) were obtained from American Type Culture Collection (ATCC, Manassas, VA, USA) and cultured as already reported. The mouse BALB/3T3 embryonic fibroblasts were also purchased from American Type Culture Collection (ATCC, Manassas, VA, USA) and cultured in DMEM high glucose supplemented with 10% bovine calf serum (BCS) and 100 U mL^−1 penicillin/streptomycin.
(§3) MTT assay (Sigma Aldrich (St. Louis, MO, USA)) was performed for evaluating the in vitro anticancer activities of the compounds, as previously indicated. Different concentrations (0.1, 1, 10, 25, 50, and 100 μM) of the compounds were employed, with a 72 h endpoint. IC50 values were obtained from the percent (%) of control using GraphPad Prism 9 (GraphPad Software, La Jolla, CA, USA).

[2] = tested on: mouse BALB/3T3 embryonic fibroblasts; assay: MTT cytotoxicity assay, BALB/3T3; assay type: cell-based; conditions: 72 h, normal cells
Protocol: as §1, §2, §3

caspase-8 activity (caspase-8): no change | IC50 ([1]; Homo sapiens, MCF7, MTT, 72 h): 3.1 ± 0.6 µM
SMILES: COc1cc(/C=C2\SC(=O)N(CC(=O)Nc3nc(-c4ccc(Br)cc4)cs3)C2=O)cc(OC)c1OC [compound 7e, (Z)-2-(5-(3,4,5-Trimethoxybenzylidene)thiazolidin-2,4-dion-3-yl)-N-(4-(4-bromophenyl)thiazol-2-yl)acetamide]
fold more active against MCF-7 than against mouse BALB/3T3 embryonic fibroblasts ([1]; MCF-7 vs BALB/3T3 IC50): about 11 fold | IC50 [2]: 35 ± 0.6 µM
